Data as given in PubChem BioAssay AID1963848 (Molecular Pharmacology Branch, DTP, NCI, 2024).

Tested on: 379773-124-R-J2-PDC spheroid viability
Test: Anticancer human tumor 379773-124-R-J2-PDC patient-derived endometrial carcinoma cell line growth inhibition [POLQ]
Conditions: spheroids with HUVEC and MSC; for IC50: curve of first compound; for viability, T/C: stronger effect = lower value
Experimental: Multicellular complex tumor spheroid response to Polymerase (POL) inhibitors (novobiocin, ART-558, RP6685) in combination with a variety of drugs and investigational agents in selected tumor cell lines
The POL inhibitors (novobiocin, ART-558, and RP6685) were evaluated both individually and in combination with standard of care and investigational anticancer small molecules within a complex spheroid model of solid tumors. . Complex spheroids include a stromal component modeled by human endothelial cells (HUVEC) and fibroblasts modeled by human mesenchymal stem cells (MSCs). The concentration ranges selected for each drug and investigational agent were based upon clinically achievable concentrations if the clinical Cmax of the agent was known.
Compounds. The drugs and investigational agents: novobiocin (NSC847541), ART-558 (NSC835418), RP-6685 (NSC848927), peposertib (NSC802822), ceralasertib (NSC780249), elimusertib (NSC800525), camonsertib (NSC841442), AZD-1390 (NSC803789), olaparib (NSC753686), talazoparib (NSC767125), rucaparib (NSC756644), sotorasib (NSC818433), MRTX-1133 (NSC836407), SN-38 (NSC673596), topotecan (NSC609699), epotoside (NSC141540), doxorubicin (NSC123127), gemcitabine (NSC613327), 5-fluorouracil (NSC19893), paclitaxel (NSC125973), vemurafenib (NSC761431), MSA-2 (NSC828583), SN-011 (NSC837082), adavosertib (NSC754352), prexasertib (NSC758257), carboplatin (NSC241240) and oxaliplatin (NSC266046), were obtained from the National Cancer Institute (NCI) Developmental Therapeutics Program Chemical Repository (21). The FDA-approved anticancer drug set is available from the Developmental Therapeutics Program at https://dtp.cancer.gov/organization/dscb/obtaining/. […] The stock solutions were prepared in dimethyl sulfoxide (DMSO, Sigma-Aldrich, St. Louis, MO, cat. D2650), except for the platinum compounds which were prepared in saline (Quality Biological, Gaithersburg, MD, cat. 114-055-101), at 800-fold the tested concentration and stored at -70 degrees C prior to their use. All drugs and investigational agents were tested over a range starting from a high concentration at or near the clinical Cmax and decreasing in half-log increments. If the clinical Cmax for an agent had not been determined, the highest concentration tested was 10 microM, except for SN-38, which was tested at a high concentration of 1 microM.
Cell Culture. All cells were maintained in an incubator at 37 degrees C and 5% CO2 with 95% humidity. The PDC lines were cultured according to standard operating procedures established by the NCI PDMR (https://pdmr.cancer.gov). Table 3 of the manuscript, lists the cell lines along with the number of the three cell types plated to form the mct-spheroids and media for tumor cell growth. After thawing, all PDC lines, except 997537-175-T-J1-PDC and 415267-285-R-J2-PDC, were cultured in Matrigel-coated flasks prepared with a working solution of 1X Ham's F-12 nutrient mix, without supplementation (Thermo Fisher Scientific, cat. 11765054), 100 U/mL penicillin-streptomycin (Thermo Fisher Scientific, cat. 15140122), and 2.5% Matrigel (Corning Inc., Corning, NY, cat. 354248) for the first three passages. The two PDC lines 997537-175-T-J1-PDC and 415267-285-R-J2-PDC were cultured on uncoated flasks. The 857933-349-R-J2-PDC line was cultured in 6C/Colon 1B media containing advanced DMEM/F-12 (Thermo Fisher Scientific, cat. 12634028), 10 mM HEPES (Thermo Fisher Scientific, cat. 15630080), 1X GlutaMAX supplement (Thermo Fisher Scientific, cat. 35050061), 0.1 mg/mL primocin (InvivoGen, San Diego, CA, cat. ant-pm-2), 10% defined fetal bovine serum, heat inactivated (HyClone Laboratories Inc., Logan, UT, cat. SH30070.03HI), 50% L-WRN conditioned media (ATCC, cat. CRL-3276), 1.25 mM N-Acetyl-L-cysteine (Sigma-Aldrich, cat. A9165), 10 mM nicotinamide (Sigma-Aldrich, cat. N0636), 1X B-27 supplement (Thermo Fisher Scientific, cat. 17504044), 1X N-2 supplement (Thermo Fisher Scientific, cat. […]

[1] = second compound 0.0316 µM, first compound 0.0316 µM
[2] = second compound 0.0316 µM, first compound 0.1 µM
[3] = second compound 0.0316 µM, first compound 0.316 µM
[4] = second compound 0.0316 µM, first compound 1 µM
[5] = second compound 0.0316 µM, first compound 3.16 µM
[6] = second compound 0.0316 µM, first compound 10 µM
[7] = second compound 0.1 µM, first compound 0.0316 µM
[8] = second compound 0.1 µM, first compound 0.1 µM
[9] = second compound 0.1 µM, first compound 0.316 µM
[10] = second compound 0.1 µM, first compound 1 µM
[11] = second compound 0.1 µM, first compound 3.16 µM
[12] = second compound 0.1 µM, first compound 10 µM
[13] = second compound 0.316 µM, first compound 0.0316 µM
[14] = second compound 0.316 µM, first compound 0.1 µM
[15] = second compound 0.316 µM, first compound 0.316 µM
[16] = second compound 0.316 µM, first compound 1 µM
[17] = second compound 0.316 µM, first compound 3.16 µM
[18] = second compound 0.316 µM, first compound 10 µM
[19] = second compound 1 µM, first compound 0.0316 µM
[20] = second compound 1 µM, first compound 0.1 µM
[21] = second compound 1 µM, first compound 0.316 µM
[22] = second compound 1 µM, first compound 1 µM
[23] = second compound 1 µM, first compound 3.16 µM
[24] = second compound 1 µM, first compound 10 µM
[25] = second compound 3.16 µM, first compound 0.0316 µM
[26] = second compound 3.16 µM, first compound 0.1 µM
[27] = second compound 3.16 µM, first compound 0.316 µM
[28] = second compound 3.16 µM, first compound 1 µM
[29] = second compound 3.16 µM, first compound 3.16 µM
[30] = second compound 3.16 µM, first compound 10 µM
[31] = second compound 10 µM, first compound 0.0316 µM
[32] = second compound 10 µM, first compound 0.1 µM
[33] = second compound 10 µM, first compound 0.316 µM
[34] = second compound 10 µM, first compound 1 µM
[35] = second compound 10 µM, first compound 3.16 µM
[36] = second compound 10 µM, first compound 10 µM
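Also: spheroids exposed to drugs for seven days before readout.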
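For viability, T/C in this document: percent viability relative to DMSO vehicle control taken as 100%.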

`CCCS(=O)(=O)Nc1ccc(F)c(C(=O)c2c[nH]c3ncc(-c4ccc(Cl)cc4)cc23)c1F` + Nc1ccc(C#CCN(C(=O)Cc2ncc(C(F)(F)F)cc2C(F)(F)F)c2ccc(F)cc2)nn1 gave an IC50 (second compound 0.0316 µM) of over 10 µM, an IC50 (second compound 0.1 µM) of over 10 µM and an IC50 (second compound 0.316 µM) of over 10 µM. It also gave an IC50 (second compound 1 µM) of over 10 µM, an IC50 (second compound 3.16 µM) of over 10 µM and an IC50 (second compound 10 µM) of over 10 µM. The viability, T/C [1] was 85.6%, the viability, T/C [2] was 97.3% and the viability, T/C [3] was 83.9%. It also gave a viability, T/C [4] of 92%, a viability, T/C [5] of 80.9% and a viability, T/C [6] of 55.1%. For the same compound, the viability, T/C [7] was 95.3%, the viability, T/C [8] was 88.7% and the viability, T/C [9] was 87.2%. It also gave a viability, T/C [10] of 85.7%, a viability, T/C [11] of 81.4% and a viability, T/C [12] of 55%. The viability, T/C [13] was 94.6%, the viability, T/C [14] was 95.8% and the viability, T/C [15] was 81%. It also gave a viability, T/C [16] of 94.6%, a viability, T/C [17] of 93.6% and a viability, T/C [18] of 70.8%. For the same compound, the viability, T/C [19] was 90.6%, the viability, T/C [20] was 86.6% and the viability, T/C [21] was 95.1%. For the same compound, the viability, T/C [22] was 85.7%, the viability, T/C [23] was 77.9% and the viability, T/C [24] was 59.2%. For the same compound, the viability, T/C [25] was 96.5%, the viability, T/C [26] was 89.7% and the viability, T/C [27] was 92.1%. For the same compound, the viability, T/C [28] was 96.4%, the viability, T/C [29] was 75.1% and the viability, T/C [30] was 59.8%. For the same compound, the viability, T/C [31] was 100%, the viability, T/C [32] was 87.3% and the viability, T/C [33] was 79.8%. The viability, T/C [34] was 83.6%, the viability, T/C [35] was 81.5% and the viability, T/C [36] was 54.3%.
In the case of `CNCc1ccc(-c2[nH]c3cc(F)cc4c3c2CCNC4=O)cc1` + Nc1ccc(C#CCN(C(=O)Cc2ncc(C(F)(F)F)cc2C(F)(F)F)c2ccc(F)cc2)nn1, the IC50 (second compound 0.0316 µM) is reported as over 10 µM, the IC50 (second compound 0.1 µM) is reported as over 10 µM and the IC50 (second compound 0.316 µM) is reported as over 10 µM. For the same compound, the IC50 (second compound 1 µM) was over 10 µM, the IC50 (second compound 3.16 µM) was over 10 µM and the IC50 (second compound 10 µM) was over 10 µM. The viability, T/C [1] was 92.7%, the viability, T/C [2] was 91.7% and the viability, T/C [3] was 91.2%. The viability, T/C [4] was 101%, the viability, T/C [5] was 99.8% and the viability, T/C [6] was 99.7%. For the same compound, the viability, T/C [7] was 84.4%, the viability, T/C [8] was 90.7% and the viability, T/C [9] was 87.5%. For the same compound, the viability, T/C [10] was 95.8%, the viability, T/C [11] was 101% and the viability, T/C [12] was 79.6%. For the same compound, the viability, T/C [13] was 101%, the viability, T/C [14] was 95.4% and the viability, T/C [15] was 85.9%. The viability, T/C [16] was 87.1%, the viability, T/C [17] was 93.8% and the viability, T/C [18] was 93.3%. For the same compound, the viability, T/C [19] was 90.4%, the viability, T/C [20] was 101% and the viability, T/C [21] was 91.2%. The viability, T/C [22] was 91.2%, the viability, T/C [23] was 92.9% and the viability, T/C [24] was 83.4%. For the same compound, the viability, T/C [25] was 88.2%, the viability, T/C [26] was 86% and the viability, T/C [27] was 84.8%. It also gave a viability, T/C [28] of 86%, a viability, T/C [29] of 96.3% and a viability, T/C [30] of 79.4%. The viability, T/C [31] was 102%, the viability, T/C [32] was 88.4% and the viability, T/C [33] was 85.3%. For the same compound, the viability, T/C [34] was 87.1%, the viability, T/C [35] was 96.6% and the viability, T/C [36] was 86.4%.
Compound `COc1cccc(OCCCN)c1-c1cc(Nc2cnc(C#N)cn2)n[nH]1` + Nc1ccc(C#CCN(C(=O)Cc2ncc(C(F)(F)F)cc2C(F)(F)F)c2ccc(F)cc2)nn1 has an IC50 (second compound 0.0316 µM) of 0.00621 µM, an IC50 (second compound 0.1 µM) of 0.00612 µM and an IC50 (second compound 0.316 µM) of 0.00636 µM. For the same compound, the IC50 (second compound 1 µM) was 0.00647 µM, the IC50 (second compound 3.16 µM) was 0.0064 µM and the IC50 (second compound 10 µM) was 0.00636 µM. It also gave a viability, T/C (second compound 0.0316 µM, first compound 0.00316 µM) of 86.5%, a viability, T/C (second compound 0.0316 µM, first compound 0.01 µM) of 24.3% and a viability, T/C [1] of 3.65%. The viability, T/C [2] was 2.95%, the viability, T/C [3] was 2.97% and the viability, T/C [4] was 1.66%. The viability, T/C (second compound 0.1 µM, first compound 0.00316 µM) was 80.2%, the viability, T/C (second compound 0.1 µM, first compound 0.01 µM) was 27.6% and the viability, T/C [7] was 3.76%. The viability, T/C [8] was 2.65%, the viability, T/C [9] was 2.25% and the viability, T/C [10] was 1.2%. It also gave a viability, T/C (second compound 0.316 µM, first compound 0.00316 µM) of 95.2%, a viability, T/C (second compound 0.316 µM, first compound 0.01 µM) of 20.7% and a viability, T/C [13] of 3.16%. For the same compound, the viability, T/C [14] was 2.72%, the viability, T/C [15] was 3.55% and the viability, T/C [16] was 1.23%. It also gave a viability, T/C (second compound 1 µM, first compound 0.00316 µM) of 98.5%, a viability, T/C (second compound 1 µM, first compound 0.01 µM) of 20.5% and a viability, T/C [19] of 3.32%. It also gave a viability, T/C [20] of 2.87%, a viability, T/C [21] of 4.02% and a viability, T/C [22] of 1.67%. For the same compound, the viability, T/C (second compound 3.16 µM, first compound 0.00316 µM) was 102%, the viability, T/C (second compound 3.16 µM, first compound 0.01 µM) was 16.9% and the viability, T/C [25] was 3.53%. For the same compound, the viability, T/C [26] was 1.93%, the viability, T/C [27] was 2.04% and the viability, T/C [28] was 1.29%. For the same compound, the viability, T/C (second compound 10 µM, first compound 0.00316 µM) was 93.2%, the viability, T/C (second compound 10 µM, first compound 0.01 µM) was 22% and the viability, T/C [31] was 2.53%. For the same compound, the viability, T/C [32] was 2.36%, the viability, T/C [33] was 2.24% and the viability, T/C [34] was 1.49%.
